Data reported in US20230017045A1, “PYRIDINE AND PYRIMIDINE CARBOXYLATE HERBICIDES AND METHODS OF USE THEREOF” (Dow AgroSciences LLC, priority 2017, published 2023).

Test system: test plant species
Test: Post-emergent herbicidal activity test (greenhouse, foliar spray, visual growth reduction)
Type: in vivo
Settings: post-emergence, 336 h, ECHCG: barnyardgrass (Echinochloa crus-galli), 140 g ai/ha, 14 days after application, read-out: Visual Growth Reduction (%) 14 Days After Application, ECHCG
Method in brief: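 Seedlings were raised 7-21 d in a greenhouse under a 15 h photoperiod until the first or second true leaf. Each compound, dissolved in acetone:DMSO 97:3 and diluted into a surfactant-containing spray mixture, was then applied at 187 L/ha. Plants were subirrigated, and growth reduction was scored visually at 14 d.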

Compound | pest or weed control at 140 g/ha
COC(=O)c1nc(-c2ccc3ccsc3c2F)c(Cl)cc1Cl [F330, Methyl 3,5-dichloro-6-(7-fluorobenzo[b]thiophen-6-yl)picolinate] | 0 to 29%
COC(=O)c1nc(-c2cc(Cl)c(C)cc2F)ccc1Cl [F271, Methyl 3-chloro-6-(5-chloro-2-fluoro-4-methylphenyl) picolinate] | 0 to 29%
COC(=O)c1nc(-c2ccc(N)cc2F)c(F)cc1Cl [F348, Methyl 6-(4-amino-2-fluorophenyl)-3-chloro-5-fluoropicolinate] | 0 to 29%

Same assay, conditions: post-emergence, 336 h, IPOHE: ivy-leaf morning glory (Ipomoea hederacea), 140 g ai/ha, 14 days after application, read-out: Visual Growth Reduction (%) 14 Days After Application, IPOHE

Compound | pest or weed control at 140 g/ha
COC(=O)c1nc(-c2ccc3ccsc3c2F)c(Cl)cc1Cl [F330, Methyl 3,5-dichloro-6-(7-fluorobenzo[b]thiophen-6-yl)picolinate] | 0 to 29%
COC(=O)c1nc(-c2cc(Cl)c(C)cc2F)ccc1Cl [F271, Methyl 3-chloro-6-(5-chloro-2-fluoro-4-methylphenyl) picolinate] | 0 to 29%
COC(=O)c1nc(-c2ccc(N)cc2F)c(F)cc1Cl [F348, Methyl 6-(4-amino-2-fluorophenyl)-3-chloro-5-fluoropicolinate] | 0 to 29%

Same assay, conditions: post-emergence, 336 h, KCHSC: kochia (Bassia scoparia), 140 g ai/ha, 14 days after application, read-out: Visual Growth Reduction (%) 14 Days After Application, KCHSC

Compound | pest or weed control at 140 g/ha
COC(=O)c1nc(-c2ccc3ccsc3c2F)c(Cl)cc1Cl [F330, Methyl 3,5-dichloro-6-(7-fluorobenzo[b]thiophen-6-yl)picolinate] | 0 to 29%
COC(=O)c1nc(-c2cc(Cl)c(C)cc2F)ccc1Cl [F271, Methyl 3-chloro-6-(5-chloro-2-fluoro-4-methylphenyl) picolinate] | 0 to 29%
COC(=O)c1nc(-c2ccc(N)cc2F)c(F)cc1Cl [F348, Methyl 6-(4-amino-2-fluorophenyl)-3-chloro-5-fluoropicolinate] | 0 to 29%

Same assay, conditions: post-emergence, 336 h, ORYSA: rice (Oryza sativa), 140 g ai/ha, 14 days after application, read-out: Visual Growth Reduction (%) 14 Days After Application, ORYSA

Compound | pest or weed control at 140 g/ha
COC(=O)c1nc(-c2ccc3ccsc3c2F)c(Cl)cc1Cl [F330, Methyl 3,5-dichloro-6-(7-fluorobenzo[b]thiophen-6-yl)picolinate] | 0 to 29%
COC(=O)c1nc(-c2cc(Cl)c(C)cc2F)ccc1Cl [F271, Methyl 3-chloro-6-(5-chloro-2-fluoro-4-methylphenyl) picolinate] | 0 to 29%
COC(=O)c1nc(-c2ccc(N)cc2F)c(F)cc1Cl [F348, Methyl 6-(4-amino-2-fluorophenyl)-3-chloro-5-fluoropicolinate] | 0 to 29%

Same assay, conditions: post-emergence, 336 h, SETFA: giant foxtail (Setaria faberi), 140 g ai/ha, 14 days after application, read-out: Visual Growth Reduction (%) 14 Days After Application, SETFA

Compound | pest or weed control at 140 g/ha
COC(=O)c1nc(-c2ccc3ccsc3c2F)c(Cl)cc1Cl [F330, Methyl 3,5-dichloro-6-(7-fluorobenzo[b]thiophen-6-yl)picolinate] | 0 to 29%
COC(=O)c1nc(-c2cc(Cl)c(C)cc2F)ccc1Cl [F271, Methyl 3-chloro-6-(5-chloro-2-fluoro-4-methylphenyl) picolinate] | 0 to 29%
COC(=O)c1nc(-c2ccc(N)cc2F)c(F)cc1Cl [F348, Methyl 6-(4-amino-2-fluorophenyl)-3-chloro-5-fluoropicolinate] | 0 to 29%

Same assay, conditions: post-emergence, 336 h, SORVU: grain sorghum (Sorghum vulgare), 140 g ai/ha, 14 days after application, read-out: Visual Growth Reduction (%) 14 Days After Application, SORVU

Compound | pest or weed control at 140 g/ha
COC(=O)c1nc(-c2ccc3ccsc3c2F)c(Cl)cc1Cl [F330, Methyl 3,5-dichloro-6-(7-fluorobenzo[b]thiophen-6-yl)picolinate] | 0 to 29%
COC(=O)c1nc(-c2cc(Cl)c(C)cc2F)ccc1Cl [F271, Methyl 3-chloro-6-(5-chloro-2-fluoro-4-methylphenyl) picolinate] | 0 to 29%
COC(=O)c1nc(-c2ccc(N)cc2F)c(F)cc1Cl [F348, Methyl 6-(4-amino-2-fluorophenyl)-3-chloro-5-fluoropicolinate] | 0 to 29%

Same assay, conditions: post-emergence, 336 h, STEME: common chickweed (Stellaria media), 140 g ai/ha, 14 days after application, read-out: Visual Growth Reduction (%) 14 Days After Application, STEME

Compound | pest or weed control at 140 g/ha
COC(=O)c1nc(-c2ccc3ccsc3c2F)c(Cl)cc1Cl [F330, Methyl 3,5-dichloro-6-(7-fluorobenzo[b]thiophen-6-yl)picolinate] | 0 to 29%
COC(=O)c1nc(-c2cc(Cl)c(C)cc2F)ccc1Cl [F271, Methyl 3-chloro-6-(5-chloro-2-fluoro-4-methylphenyl) picolinate] | 0 to 29%
COC(=O)c1nc(-c2ccc(N)cc2F)c(F)cc1Cl [F348, Methyl 6-(4-amino-2-fluorophenyl)-3-chloro-5-fluoropicolinate] | 0 to 29%

Same assay, conditions: post-emergence, 336 h, TRZAS: wheat, spring (Triticum aestivum), 140 g ai/ha, 14 days after application, read-out: Visual Growth Reduction (%) 14 Days After Application, TRZAS

Compound | pest or weed control at 140 g/ha
COC(=O)c1nc(-c2ccc3ccsc3c2F)c(Cl)cc1Cl [F330, Methyl 3,5-dichloro-6-(7-fluorobenzo[b]thiophen-6-yl)picolinate] | 0 to 29%
COC(=O)c1nc(-c2cc(Cl)c(C)cc2F)ccc1Cl [F271, Methyl 3-chloro-6-(5-chloro-2-fluoro-4-methylphenyl) picolinate] | 0 to 29%
COC(=O)c1nc(-c2ccc(N)cc2F)c(F)cc1Cl [F348, Methyl 6-(4-amino-2-fluorophenyl)-3-chloro-5-fluoropicolinate] | 0 to 29%

Same assay, conditions: post-emergence, 336 h, blackgrass (Alopecurus myosuroides), 14 Days After Application, 140 g ai/ha, read-out: Visual Growth Reduction (%) ALOMY

Compound | pest or weed control at 140 g/ha
COC(=O)c1nc(-c2ccc3ccsc3c2F)c(Cl)cc1Cl [F330, Methyl 3,5-dichloro-6-(7-fluorobenzo[b]thiophen-6-yl)picolinate] | 0 to 29%
COC(=O)c1nc(-c2cc(Cl)c(C)cc2F)ccc1Cl [F271, Methyl 3-chloro-6-(5-chloro-2-fluoro-4-methylphenyl) picolinate] | 0 to 29%
COC(=O)c1nc(-c2ccc(N)cc2F)c(F)cc1Cl [F348, Methyl 6-(4-amino-2-fluorophenyl)-3-chloro-5-fluoropicolinate] | 0 to 29%

Same assay, conditions: post-emergence, 336 h, canada thistle (Cirsium arvense), 14 Days After Application, 140 g ai/ha, read-out: Visual Growth Reduction (%) CIRAR

Compound | pest or weed control at 140 g/ha
COC(=O)c1nc(-c2cc(Cl)c(C)cc2F)ccc1Cl [F271, Methyl 3-chloro-6-(5-chloro-2-fluoro-4-methylphenyl) picolinate] | 0 to 29%

Same assay, conditions: post-emergence, 336 h, crabgrass (Digitaria sanguinalis), 14 Days After Application, 140 g ai/ha, read-out: Visual Growth Reduction (%) DIGSA

Compound | pest or weed control at 140 g/ha
COC(=O)c1nc(-c2ccc3ccsc3c2F)c(Cl)cc1Cl [F330, Methyl 3,5-dichloro-6-(7-fluorobenzo[b]thiophen-6-yl)picolinate] | 0 to 29%
COC(=O)c1nc(-c2cc(Cl)c(C)cc2F)ccc1Cl [F271, Methyl 3-chloro-6-(5-chloro-2-fluoro-4-methylphenyl) picolinate] | 0 to 29%
COC(=O)c1nc(-c2ccc(N)cc2F)c(F)cc1Cl [F348, Methyl 6-(4-amino-2-fluorophenyl)-3-chloro-5-fluoropicolinate] | 0 to 29%

Same assay, conditions: post-emergence, 336 h, lambsquarters (Chenopodium album), 14 Days After Application, 140 g ai/ha, read-out: Visual Growth Reduction (%) CHEAL

Compound | pest or weed control at 140 g/ha
COC(=O)c1nc(-c2ccc3ccsc3c2F)c(Cl)cc1Cl [F330, Methyl 3,5-dichloro-6-(7-fluorobenzo[b]thiophen-6-yl)picolinate] | 0 to 29%
COC(=O)c1nc(-c2cc(Cl)c(C)cc2F)ccc1Cl [F271, Methyl 3-chloro-6-(5-chloro-2-fluoro-4-methylphenyl) picolinate] | 60 to 74%
COC(=O)c1nc(-c2ccc(N)cc2F)c(F)cc1Cl [F348, Methyl 6-(4-amino-2-fluorophenyl)-3-chloro-5-fluoropicolinate] | 0 to 29%

Same assay, conditions: post-emergence, 336 h, redroot pigweed (Amaranthus retroflexus), 14 Days After Application, 140 g ai/ha, read-out: Visual Growth Reduction (%) AMARE

Compound | pest or weed control at 140 g/ha
COC(=O)c1nc(-c2ccc3ccsc3c2F)c(Cl)cc1Cl [F330, Methyl 3,5-dichloro-6-(7-fluorobenzo[b]thiophen-6-yl)picolinate] | 0 to 29%
COC(=O)c1nc(-c2cc(Cl)c(C)cc2F)ccc1Cl [F271, Methyl 3-chloro-6-(5-chloro-2-fluoro-4-methylphenyl) picolinate] | 0 to 29%
COC(=O)c1nc(-c2ccc(N)cc2F)c(F)cc1Cl [F348, Methyl 6-(4-amino-2-fluorophenyl)-3-chloro-5-fluoropicolinate] | 0 to 29%

Same assay, conditions: post-emergence, 336 h, wild oat (Avena fatua), 14 Days After Application, 140 g ai/ha, read-out: Visual Growth Reduction (%) AVEFA

Compound | pest or weed control at 140 g/ha
COC(=O)c1nc(-c2ccc3ccsc3c2F)c(Cl)cc1Cl [F330, Methyl 3,5-dichloro-6-(7-fluorobenzo[b]thiophen-6-yl)picolinate] | 0 to 29%
COC(=O)c1nc(-c2cc(Cl)c(C)cc2F)ccc1Cl [F271, Methyl 3-chloro-6-(5-chloro-2-fluoro-4-methylphenyl) picolinate] | 0 to 29%
COC(=O)c1nc(-c2ccc(N)cc2F)c(F)cc1Cl [F348, Methyl 6-(4-amino-2-fluorophenyl)-3-chloro-5-fluoropicolinate] | 0 to 29%

Same assay, conditions: post-emergence, 336 h, yellow nutsedge (Cyperus esculentus), 14 Days After Application, 140 g ai/ha, read-out: Visual Growth Reduction (%) CYPES

Compound | pest or weed control at 140 g/ha
COC(=O)c1nc(-c2ccc3ccsc3c2F)c(Cl)cc1Cl [F330, Methyl 3,5-dichloro-6-(7-fluorobenzo[b]thiophen-6-yl)picolinate] | 30 to 44%
COC(=O)c1nc(-c2cc(Cl)c(C)cc2F)ccc1Cl [F271, Methyl 3-chloro-6-(5-chloro-2-fluoro-4-methylphenyl) picolinate] | 0 to 29%
COC(=O)c1nc(-c2ccc(N)cc2F)c(F)cc1Cl [F348, Methyl 6-(4-amino-2-fluorophenyl)-3-chloro-5-fluoropicolinate] | 0 to 29%
